Measured values published in the supplement of paper PMC10307832.

How the values were obtained:
Experiment in all cases: relative viability (nuclei count vs DMSO), 5 days (fraction); higher = more cells survive
[1] = tested on: NCI-H650
Method in brief: (§1)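 Relative viability was taken as the ratio of nuclei in treated wells to nuclei in vehicle wells. Lung cancer cell lines in 1536-well plates received compounds by pin tool one day after seeding, either one drug alone or a fixed anchor-drug dose plus five library-drug doses (not always all listed) in √10 steps. Nuclei were counted on 4× images after 5 days of treatment, and values are medians of duplicate plates.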

[2] = tested on: HCC-44
Method in brief: as §1

[3] = tested on: NCI-H1666
Method in brief: as §1

[4] = tested on: NCI-H1437
Method in brief: as §1

[5] = tested on: HCC-827
Method in brief: as §1

[6] = tested on: SK-MES-1
Method in brief: as §1

[7] = tested on: NCI-H23
Method in brief: as §1

[8] = tested on: NCI-H1792
Method in brief: as §1

[9] = tested on: NCI-H838
Method in brief: as §1

[10] = tested on: BEN
Method in brief: as §1

[11] = tested on: NCI-H441
Method in brief: as §1

[12] = tested on: LK-2
Method in brief: as §1

SMILES: NC(=O)Nc1cc(-c2cccc(F)c2)sc1C(=O)N[C@H]1CCCNC1 [AZD7762] + Nc1ncn([C@H]2C[C@H](O)[C@@H](CO)O2)c(=O)n1 [Decitabine] (partner 2 µM)
- relative viability ([1]; first compound 0.1 µM): 0.437
- relative viability ([1]; first compound 0.3162 µM): 0.493
- relative viability ([1]; first compound 1 µM): 0.493
- relative viability ([2]; first compound 0.01 µM): 0.994
- relative viability ([2]; first compound 0.03162 µM): 0.959
- relative viability ([2]; first compound 0.1 µM): 1.01
- relative viability ([2]; first compound 0.3162 µM): 0.987
- relative viability ([2]; first compound 1 µM): 1.08
- relative viability ([3]; first compound 0.01 µM): 0.731
- relative viability ([3]; first compound 0.03162 µM): 0.907
- relative viability ([3]; first compound 0.1 µM): 0.924
- relative viability ([3]; first compound 0.3162 µM): 0.824
- relative viability ([3]; first compound 1 µM): 0.71
- relative viability ([4]; first compound 0.01 µM): 0.638
- relative viability ([4]; first compound 0.03162 µM): 0.622
- relative viability ([4]; first compound 0.1 µM): 0.721
- relative viability ([4]; first compound 0.3162 µM): 0.656
- relative viability ([4]; first compound 1 µM): 0.57
- relative viability ([5]; first compound 0.01 µM): 0.312
- relative viability ([5]; first compound 0.03162 µM): 0.428
- relative viability ([5]; first compound 0.1 µM): 0.362
- relative viability ([5]; first compound 0.3162 µM): 0.338
- relative viability ([5]; first compound 1 µM): 0.233
- relative viability ([6]; first compound 0.01 µM): 0.347
- relative viability ([6]; first compound 0.03162 µM): 0.394
- relative viability ([6]; first compound 0.1 µM): 0.342
- relative viability ([6]; first compound 0.3162 µM): 0.289
- relative viability ([6]; first compound 1 µM): 0.163
- relative viability ([7]; first compound 0.01 µM): 0.329
- relative viability ([7]; first compound 0.03162 µM): 0.376
- relative viability ([7]; first compound 0.1 µM): 0.296
- relative viability ([7]; first compound 0.3162 µM): 0.331
- relative viability ([7]; first compound 1 µM): 0.284
- relative viability ([8]; first compound 0.01 µM): 0.507
- relative viability ([8]; first compound 0.03162 µM): 0.579
- relative viability ([8]; first compound 0.1 µM): 0.662
- relative viability ([8]; first compound 0.3162 µM): 0.582
- relative viability ([8]; first compound 1 µM): 0.68
- relative viability ([9]; first compound 0.01 µM): 0.661
- relative viability ([9]; first compound 0.03162 µM): 0.568
- relative viability ([9]; first compound 0.1 µM): 0.531
- relative viability ([9]; first compound 0.3162 µM): 0.454
- relative viability ([9]; first compound 1 µM): 0.283
- relative viability ([10]; first compound 0.01 µM): 0.801
- relative viability ([10]; first compound 0.03162 µM): 0.984
- relative viability ([10]; first compound 0.1 µM): 0.874
- relative viability ([10]; first compound 0.3162 µM): 0.872
- relative viability ([10]; first compound 1 µM): 0.673
- relative viability ([11]; first compound 0.01 µM): 0.274
- relative viability ([11]; first compound 0.03162 µM): 0.29
- relative viability ([11]; first compound 0.1 µM): 0.328
- relative viability ([11]; first compound 0.3162 µM): 0.344
- relative viability ([11]; first compound 1 µM): 0.27
- relative viability ([12]; first compound 0.01 µM): 0.476
- relative viability ([12]; first compound 0.03162 µM): 0.479
- relative viability ([12]; first compound 0.1 µM): 0.346
- relative viability ([12]; first compound 0.3162 µM): 0.346
- relative viability ([12]; first compound 1 µM): 0.25
